Results on two molecules are retold here after PMC7532004, “Site-specific effects of neurosteroids on GABAA receptor activation and desensitization” (eLife, 2020).

Each structure is given as a SMILES string.

In assay [1] the target is T1, α1(Q242L/N408A/Y411F)β3 GABAAR (UniProt P28472+P62813, N434A/Q268L/Y437F). Kind of assay: [3H]muscimol binding to HEK cell membranes, intersubunit + α1 intrasubunit site mutant. Conditions: 3 nM [3H]muscimol, 100% means no effect. Set-up: expressed in transfected cells; host or cells: HEK293S GnTI- (ATCC CRL-3022), transient; species or system rat α1, human β3. As for the experimental part: (§1) The human α1 and β3 GABAAR subunits were subcloned into pcDNA3 for molecular manipulations and cRNA synthesis. Using QuikChange Site-Directed Mutagenesis Kit (Agilent Technologies, Santa Clara, CA), a FLAG tag was first added to the α1 subunit then an 8xHis tag was added to generate the following His-FLAG tag tandem ([…]), inserted between the fourth and fifth residues of the mature peptide. The α1 and β3 subunits were then transferred into the pcDNA4/TO and pcDNA5/TO vectors (Thermo Fisher Scientific), respectively, for tetracycline inducible expression. Transient expression was done using the GABAAR subunits rat α1FLAG ([Ueno et al., 1996]) and human β3 obtained from Geoffrey White (Neurogen, Branford, CT), each were subcloned into pcDNA3 for molecular manipulations and cRNA synthesis. […]
(§2) [^3H]muscimol-binding assays were performed using a previously described method ([Chen et al., 2019]). […] Time courses of neurosteroid [^3H]muscimol binding enhancement were examined by adding 10 µM of neurosteroids (3α5αP, 3β5αP) to membranes that had been fully equilibrated with 3 nM [^3H]muscimol for 1 hr on ice; binding was then measured as a function of time at 1, 3, 10, 30, 60 min. […] Radioactivity bound to the filters was measured by liquid scintillation spectrometry using Bio-Safe II (Research Products International, Mount Prospect, IL).

In assay [2] the target is T1, α1(Q242L/N408A/Y411F)β3 GABAAR. Kind of assay: Two-electrode voltage clamp in Xenopus laevis oocytes, intersubunit + α1 intrasubunit mutant. Conditions: 3 μM 3α5αP, 1 mM GABA + 40 μM pentobarbital. Set-up: expressed in transfected cells; host or cells: Xenopus laevis oocytes injected with cRNA. In kind it is cell-based. As for the experimental part: (§3) The wild-type and mutant α1β3 GABAAR were expressed in oocytes from the African clawed frog (Xenopus laevis). Frogs were purchased from Xenopus 1 (Dexter, MI), and housed and cared for in a Washington University Animal Care Facility under the supervision of the Washington University Division of Comparative Medicine. Harvesting of oocytes was conducted under the Guide for the Care and Use of Laboratory Animals as adopted and promulgated by the National Institutes of Health. The animal protocol (No. 20180191) was approved by the Animal Studies Committee of Washington University in St. Louis. The oocytes were injected with a total of 12 ng cRNA. The ratio of cRNAs was 5:1 ratio (α1:β3) to minimize the expression of β3 homomeric receptors. Following injection, the oocytes were incubated in ND96 (96 mM NaCl, 2 mM KCl, 1.8 mM CaCl2, 1 mM MgCl2, 5 mM HEPES; pH 7.4) with supplements (2.5 mM Na pyruvate, 100 U/ml penicillin, 100 μg/ml streptomycin and 50 μg/ml gentamycin) at 16°C for 2 days prior to conducting electrophysiological recordings. The electrophysiological recordings were conducted at room temperature using standard two-electrode voltage clamp. The oocytes were clamped at −60 mV. The chamber (RC-1Z, Warner Instruments, Hamden, CT) was perfused with ND96 at 5–8 ml/min. […] Current traces were analyzed with Clampfit (Molecular Devices). […]
For orientation: Two-electrode voltage clamp is typically applied to oocytes expressing channels or transporters.

In another assay the target is α1(V256S)β3 GABAAR (UniProt P28472+P62813, V283S). Kind of assay: [3H]muscimol binding to HEK cell membranes, desensitization-eliminating mutant. Set-up: expressed in transfected cells; host or cells: HEK293S GnTI- (ATCC CRL-3022), transient; species or system rat α1, human β3. The settings on record: 10 μM neurosteroid; 3 nM [3H]muscimol. As for the experimental part: as §1, §2

Assay [3] concerns the target T2, α1(Q242L)β3(Y284F) GABAAR (UniProt P28472+P62813, Q268L/Y309F).
T2 construct: expressed in transfected cells; host or cells: Xenopus laevis oocytes injected with cRNA
Kind of assay: Two-electrode voltage clamp in Xenopus laevis oocytes, intersubunit + β3 intrasubunit mutant. In kind it is cell-based. The settings on record: 3 μM 3α5αP, 1 mM GABA + 40 μM pentobarbital. As for the experimental part:
as §3

Assay [4] concerns the target T3, α1(Q242L/N408A/Y411F)β3(Y284F) GABAAR (UniProt P28472+P62813, N434A/Q268L/Y309F/Y437F).
T3 construct: expressed in transfected cells; host or cells: Xenopus laevis oocytes injected with cRNA
Kind of assay: Two-electrode voltage clamp in Xenopus laevis oocytes, all three sites mutated. In kind it is cell-based. Conditions: 3 μM 3β5αP, 1 mM GABA + 25 μM pentobarbital. As to the method: as §3

The target of assay [5] is T4, α1(N408A/Y411F)β3(Y284F) GABAAR (UniProt P28472+P62813, N434A/Y309F/Y437F).
T4 construct: expressed in transfected cells; host or cells: Xenopus laevis oocytes injected with cRNA
Kind of assay: Two-electrode voltage clamp in Xenopus laevis oocytes, both intrasubunit sites mutated. Type of assay: cell-based. The settings on record: 3 μM 3β5αP, 1 mM GABA + 25 μM pentobarbital. As to the method: as §3

Another assay concerns α1(N408A/Y411F)β3 GABAAR. The experiment in a line: Two-electrode voltage clamp in Xenopus laevis oocytes, N408A/Y411F mutant. In kind it is cell-based. The settings on record: 3 μM 3β5αP, 1 mM GABA; α1(N408A/Y411F)β3 vs WT. As for the experimental part: as §3
The test system of another assay is α1β3(Y284F) GABAAR. Kind of assay: Two-electrode voltage clamp in Xenopus laevis oocytes, Y284F mutant. In kind it is cell-based. The settings on record: 3 μM 3β5αP, 1 mM GABA; α1β3(Y284F) vs WT. As to the method:
as §3

For the molecule `CC(=O)[C@H]1CC[C@H]2[C@@H]3CC[C@H]4C[C@H](O)CC[C@]4(C)[C@H]3CC[C@]12C` [3α5αP, allopregnanolone], the “Emax (% of control) of [3H]muscimol binding” value in assay [1] is on record as “**105.9 ± 7.3 % of control”. In addition, the “Effect on steady-state current” value in assay [2] is “significantly inhibited”. Moreover, the “Enhancement of specific [3H]muscimol binding in α1(V256S)β3 compared with WT” value on α1(V256S)β3 GABAAR was “unaffected”. In addition, in assay [3], the “Inhibition of steady-state current, effect of β3 intrasubunit site mutation” value is “markedly reduced”.
On to `CC(=O)[C@H]1CC[C@H]2[C@@H]3CC[C@H]4C[C@@H](O)CC[C@]4(C)[C@H]3CC[C@]12C` [3β5αP, epi-allopregnanolone], for which the “Desensitizing effect with combined mutations of all three binding sites” value in assay [4] is “not completely eliminated”. At α1(V256S)β3 GABAAR, the “Enhancement of specific [3H]muscimol binding in α1(V256S)β3 compared with WT” value is on record as “absent”. In assay [5], the “Enhancement of desensitization compared with single intrasubunit site mutants” value is on record as “less NS-enhancement of desensitization”. Moreover, the “Prevention of 3β5αP-enhanced desensitization by mutation” value in the assay with α1(N408A/Y411F)β3 GABAAR and with α1β3(Y284F) GABAAR was ~ 67% throughout.
